# Experimental data as given in patent US20260184702A1, “SYNTHESIS, PHARMACOLOGY AND USE OF NEW WATER-SOLUBLE AND SELECTIVE FMS-LIKE TYROSINE KINASE3 (FLT3) INHIBITORS” (Universität Regensburg, priority 2022, published 2026).
# Where two headings read alike, the source gives them in different places.
# Experiments:
# [1] = Solubility test by UV-Vis spectroscopy of saturated solutions; type: physicochemical; settings: saturated solution; for solubility: thermodynamic from solid
# Method: All UV-Vis measurements were carried out with an Agilent Cary 60 UV-Vis 2.00 between 800-200 nm. The absorbance was measured with a scan rate of 300.0 nm/min, a data interval of 0.50 nm and an UV-Vis Average Time of 0.10 s. For all measurements a cuvette with 10 mm light path was used. A calibration curve was plotted from several different concentrations and the solubility of the respective compound was determined by measuring the absorbance of a diluted saturated solution. As a blank curve a mixture of ultrapure water and ethanol in a ratio of 1:1 or 5:95 was recorded. For the calibration curve a 100 μM or a 10 μM solution of the compound in an ultrapure water:ethanol (1:1) or (5:95)-mixture was prepared and diluted to obtain at least 6 concentrations. […] The supernatant was taken using a syringe and filtered through a syringe filter (RC Membrane). The saturated solution was diluted with ultrapure water and ethanol to obtain an appropriate concentration in a water:ethanol (1:1) or (5:95)-mixture. The long wave absorbance maximum was used for determination of the solubility (mean values, determination in triplicate). […] By plotting the concentration of the solution against the absorbance values at the previously determined wavelength maximum a calibration curve was obtained (FIG. 1B).
# human FLT3-ITD = molecular target: T1, human FLT3-ITD (Homo sapiens, UniProt P36888); assay: Enzymatic kinase assay FLT3 (ITD), 10-dose IC50 mode (Reaction Biology); type: biochemical
# T1 sequence (P36888 1-993): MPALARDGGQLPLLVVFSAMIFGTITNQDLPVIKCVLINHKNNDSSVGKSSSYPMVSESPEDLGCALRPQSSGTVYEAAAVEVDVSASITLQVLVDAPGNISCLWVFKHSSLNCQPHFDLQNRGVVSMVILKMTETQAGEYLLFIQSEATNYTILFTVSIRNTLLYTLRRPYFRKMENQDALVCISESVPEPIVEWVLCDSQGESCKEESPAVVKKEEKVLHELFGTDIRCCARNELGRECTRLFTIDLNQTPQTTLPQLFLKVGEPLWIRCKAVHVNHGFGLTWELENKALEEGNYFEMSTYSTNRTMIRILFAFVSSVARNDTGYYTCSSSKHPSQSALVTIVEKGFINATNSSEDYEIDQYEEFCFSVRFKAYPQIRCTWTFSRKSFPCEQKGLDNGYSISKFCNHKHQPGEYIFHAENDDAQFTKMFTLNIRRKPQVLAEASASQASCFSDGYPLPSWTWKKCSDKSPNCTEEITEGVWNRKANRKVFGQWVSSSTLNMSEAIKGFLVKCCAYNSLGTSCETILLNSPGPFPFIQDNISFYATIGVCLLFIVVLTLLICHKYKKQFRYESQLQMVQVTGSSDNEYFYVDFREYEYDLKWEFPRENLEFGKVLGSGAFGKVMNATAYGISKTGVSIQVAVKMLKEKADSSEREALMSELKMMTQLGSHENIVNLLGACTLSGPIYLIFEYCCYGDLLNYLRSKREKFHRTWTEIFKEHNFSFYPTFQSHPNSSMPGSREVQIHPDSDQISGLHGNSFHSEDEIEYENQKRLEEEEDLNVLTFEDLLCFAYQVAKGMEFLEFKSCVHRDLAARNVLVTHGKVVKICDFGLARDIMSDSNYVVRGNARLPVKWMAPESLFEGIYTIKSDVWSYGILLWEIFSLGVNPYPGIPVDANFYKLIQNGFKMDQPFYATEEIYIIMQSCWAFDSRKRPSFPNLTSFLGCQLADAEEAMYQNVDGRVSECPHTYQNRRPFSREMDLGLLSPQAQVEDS
# [2] = molecular target: T2, recombinant human FLT3 (D835Y) (Homo sapiens, UniProt P36888, D835Y); assay: Enzymatic kinase assay FLT3 (D835Y), 10-dose IC50 mode (Reaction Biology); type: biochemical; settings: 10 μM ATP
# T2 construct: purchased Reaction Biology
# T2 sequence (P36888 27-993 D835Y): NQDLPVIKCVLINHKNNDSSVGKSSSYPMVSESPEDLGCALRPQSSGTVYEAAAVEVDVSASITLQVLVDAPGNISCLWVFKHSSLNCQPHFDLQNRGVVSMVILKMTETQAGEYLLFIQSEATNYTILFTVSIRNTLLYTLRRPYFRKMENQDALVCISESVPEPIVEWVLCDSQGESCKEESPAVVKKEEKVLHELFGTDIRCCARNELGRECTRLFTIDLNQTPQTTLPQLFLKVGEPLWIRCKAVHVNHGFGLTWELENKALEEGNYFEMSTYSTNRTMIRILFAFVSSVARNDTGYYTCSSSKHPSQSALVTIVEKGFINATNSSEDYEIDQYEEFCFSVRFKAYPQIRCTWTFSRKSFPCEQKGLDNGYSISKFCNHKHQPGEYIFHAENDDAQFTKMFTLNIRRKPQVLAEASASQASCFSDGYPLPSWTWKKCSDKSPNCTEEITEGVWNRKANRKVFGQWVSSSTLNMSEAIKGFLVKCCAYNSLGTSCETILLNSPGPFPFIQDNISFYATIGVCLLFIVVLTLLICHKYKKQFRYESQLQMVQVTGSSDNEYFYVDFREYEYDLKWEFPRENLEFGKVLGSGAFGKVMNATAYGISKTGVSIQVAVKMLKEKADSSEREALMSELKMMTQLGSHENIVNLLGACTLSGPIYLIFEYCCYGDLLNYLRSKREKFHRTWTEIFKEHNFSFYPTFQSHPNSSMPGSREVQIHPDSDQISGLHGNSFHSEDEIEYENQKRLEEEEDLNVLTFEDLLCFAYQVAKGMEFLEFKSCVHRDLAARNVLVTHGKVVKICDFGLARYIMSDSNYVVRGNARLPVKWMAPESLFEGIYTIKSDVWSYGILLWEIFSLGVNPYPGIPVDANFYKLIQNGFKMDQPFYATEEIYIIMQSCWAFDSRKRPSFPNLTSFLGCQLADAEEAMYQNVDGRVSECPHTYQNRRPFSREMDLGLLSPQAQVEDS
# [3] = Solubility test by UV-Vis spectroscopy of saturated solutions; type: physicochemical; settings: solvent DMSO
# [4] = tested on: MV4-11 cells (FLT3-ITD positive); assay: Cell Titer-Glo proliferation assay with MV4-11 cells; type: cell-based; settings: Homo sapiens, MV4-11, 72 h
# Method: MV4-11 cells are human acute myeloid leukemia cell lines that carry a FLT3-ITD mutation (American Type Culture Collection, ATCC, Manassas, VA, United States). Cells were cultured in IMDM medium plus 100 μg/mL penicillin, 100 μg/mL streptomycin and 10% FBS. All cells were kept at 37° C., 5% CO2.
# Cell proliferation was assessed with Cell Titer-Glo® Viability Assay (Promega; Madison, WI, United States) according to the manufacturer's instructions.
# [5] = ethanol, organic solvent or mixture, ethanol, read-out: Solubility Ethanol
# [6] = ultrapure water, water, ultrapure water, read-out: Solubility Water
# [7] = 10 μM ATP; read-out: IC50 FLT3 (ITD)
SMILES,"solubility [1, 5] [µg/mL]","solubility [1, 6] [µg/mL]",IC50 (human FLT3-ITD; [7]) [nM],IC50 ([2]; read-out: IC50 FLT3 (D835Y)) [nM],Solubility DMSO [3],"IC50 (human FLT3-ITD; read-out: IC50 FLT3 (ITD); 10 μM ATP; bis(2,2,2-trifluoroacetate)) [nM]",IC50 ([2]; IC50 FLT3 (D835Y) [nM]) [nM],IC50 ([4]; read-out: IC50 MV4-11 cells [nM]) [nM],IC50 (human FLT3-ITD; read-out: IC50 FLT3 (ITD); 10 μM ATP) [nM],IC50 ([4]; read-out: IC50 MV4-11 cells) [nM],Solubility Ethanol ([1]; ethanol) [g/L],Solubility Water ([1]; ultrapure water) [g/L]
"CN1CCN(Cc2c(O)ccc3[nH]c(C(=O)c4cc5cc(NC(=O)Nc6cc(C(C)(C)C)on6)ccc5o4)cc23)CC1 [Compound 33a, 1-(5-(tert-Butyl)isoxazol-3-yl)-3-(2-(5-hydroxy-4-((4-methylpiperazin-1-yl)methyl)-1H-indole-2-carbonyl)benzofuran-5-yl)urea]",4670,< 100,0.81,3.83,Soluble,,,,,,,
"CC(C)(C)c1cc(NC(=O)Nc2ccc3oc(C(=O)c4cc5c(CN6CCOCC6)c(OC(=O)N6CCC(N7CCCCC7)CC6)ccc5[nH]4)cc3c2)no1 [Compound 38b, 2-(5-(3-(5-(tert-Butyl)isoxazol-3-yl)ureido)benzofuran-2-carbonyl)-4-(morpholinomethyl)-1H-indol-5-yl[1,4′-bipiperidine]-1′-carboxylate bis(2,2,2-trifluoroacetate)]",,,,,,1.29,6.63,0.38,,,,
"CN1CCN(Cc2c(OC(=O)N3CCC(N4CCCCC4)CC3)ccc3[nH]c(C(=O)c4cc5cc(NC(=O)Nc6cc(C(C)(C)C)on6)ccc5o4)cc23)CC1 [Compound 41a, 2-(5-(3-(5-(tert-Butyl)isoxazol-3-yl)ureido)benzofuran-2-carbonyl)-4-((4-methylpiperazin-1-yl)methyl)-1H-indol-5-yl [1,4′-bipiperidine]-1′-carboxylate]",,,,,,,2.46,,0.7,,,
"CC(C)(C)c1cc(NC(=O)Nc2ccc3oc(C(=O)c4cc5c(CN6CCNCC6)c(O)ccc5[nH]4)cc3c2)no1 [Compound 55b, 1-(5-(tert-Butyl)isoxazol-3-yl)-3-(2-(5-hydroxy-4-(piperazin-1-ylmethyl)-1H-indole-2-carbonyl)benzofuran-5-yl)urea bis(2,2,2-trifluoroacetate)]",1140,< 100,3.36,9.55,Soluble,,,,,0.42,,
"C=CC(=O)N1CCN(Cc2c(O)ccc3[nH]c(C(=O)c4cc5cc(NC(=O)Nc6cc(C(C)(C)C)on6)ccc5o4)cc23)CC1 [Compound 56b, 1-(2-(4-((4-Acryloylpiperazin-1-yl)methyl)-5-hydroxy-1H-indole-2-carbonyl)benzofuran-5-yl)-3-(5-(tert-butyl)isoxazole-3-yl)urea 2,2,2-trifluoroacetate]",2540,220,1.47,10.8,Soluble,,,,,0.17,,
"C/C=C/C(=O)N1CCN(Cc2c(O)ccc3[nH]c(C(=O)c4cc5cc(NC(=O)Nc6cc(C(C)(C)C)on6)ccc5o4)cc23)CC1 [Compound 57a, 1-(2-(4-((4-(But-2-enoyl)piperazin-1-yl)methyl)-5-hydroxy-1H-indole-2-carbonyl)benzofuran-5-yl)-3-(5-(tert-butyl)isoxazole-3-yl)urea]",,,4.36,,,,,,,0.24,,
"CCN1CCN(Cc2c(O)ccc3[nH]c(C(=O)c4cc5cc(NC(=O)Nc6cc(C(C)(C)C)on6)ccc5o4)cc23)CC1 [Compound 69a, 1-(5-(tert-Butyl)isoxazol-3-yl)-3-(2-(4-((4-ethylpiperazin-1-yl)methyl)-5-hydroxy-1H-indole-2-carbonyl)benzofuran-5-yl)urea]",,< 100,1.28,4.23,Soluble,,,,,0.13,0.97,
"CC(C)N1CCN(Cc2c(O)ccc3[nH]c(C(=O)c4cc5cc(NC(=O)Nc6cc(C(C)(C)C)on6)ccc5o4)cc23)CC1 [Compound 70a, 1-(5-(tert-Butyl)isoxazol-3-yl)-3-(2-(5-hydroxy-4-((4-isopropylpiperazin-1-yl)methyl)-1H-indole-2-carbonyl)benzofuran-5-yl)urea]",920,,1.98,2.6,Soluble,,,,,0.31,,<0.1
